One block for each compound: values may come before it. The source made the active and inactive calls. No cut-off for these calls is given here.
Assays:
HepG2 [1] = assay: Antiproliferative activity against human HepG2 cells assessed as reduction in cell growth after 72 hrs by MTT assay; format: functional, cell-based; conditions: HepG2, 72 h
MCF7 = assay: Antiproliferative activity against human MCF7 cells assessed as reduction in cell growth after 72 hrs by MTT assay; format: functional, cell-based; conditions: MCF7, 72 h
Homo sapiens [2] = organism: Homo sapiens; assay: Inhibition of TrxR (unknown origin) at 5 uM by […]-reagent based assay relative to control
[3] = Inhibition of TrxR (unknown origin) by […]-reagent based assay; set-up: species or system Homo sapiens
[4] = Inhibition of TrxR (unknown origin); set-up: species or system Homo sapiens
[5] = Inhibition of TrxR in human SGC-7901 cells; format: cell-based
Homo sapiens [6] = organism: Homo sapiens; assay: Inhibition of TrxR (unknown origin) at 8 uM by […]-reagent based assay relative to control
HepG2 [7] = assay: Inhibition of TrxR in human HepG2 cells assessed as decrease in green fluorescence at 12.5 to 50 uM incubated for 24 hrs by immunofluorescence assay; format: cell-based; conditions: dose 12.5-50 µM
HepG2 [8] = assay: Inhibition of TrxR in human HepG2 cells incubated for 24 hrs by immunofluorescence assay; format: cell-based; conditions: dose 12.5-50 µM
HepG2 [9] = assay: Induction of intracellular ROS generation in human HepG2 cells assessed as increase in green fluorescence at 6.25 to 12.5 uM incubated for 6 hrs by DCFH-DA probe based fluorescence microscopic analysis; format: functional, cell-based; conditions: dose 6.25-12.5 µM
HepG2 [10] = assay: Induction of intracellular ROS generation in human HepG2 cells assessed as increase in red fluorescence at 6.25 to 12.5 uM incubated for 6 hrs by DHE probe based fluorescence microscopic analysis; format: functional, cell-based; conditions: dose 6.25-12.5 µM
HepG2 [11] = assay: Induction of intracellular ROS generation in human HepG2 cells at 6.25 uM incubated for 3 to 12 hrs by DCFH-DA probe based fluorescence microscopic analysis; format: functional, cell-based; conditions: time 3-12 hrs
HepG2 [12] = assay: Induction of apoptosis in human HepG2 cells assessed as viable cells at 12.5 uM incubated for 24 hrs by Annexin V/PI staining based flow cytometry analysis (reference value: 94.9%); format: functional; conditions: read-out: Activity
HepG2 [13] = assay: Induction of apoptosis in human HepG2 cells assessed as viable cells at 25 uM incubated for 24 hrs by Annexin V/PI staining based flow cytometry analysis (reference value: 94.9%); format: functional; conditions: read-out: Activity
HepG2 [14] = assay: Induction of apoptosis in human HepG2 cells assessed as viable cells at 50 uM incubated for 24 hrs by Annexin V/PI staining based flow cytometry analysis (reference value: 94.9%); format: functional; conditions: read-out: Activity
HepG2 [15] = assay: Induction of apoptosis in human HepG2 cells assessed as early apoptotic cells at 12.5 uM incubated for 24 hrs by Annexin V/PI staining based flow cytometry analysis (reference value: 3.64%); format: functional
HepG2 [16] = assay: Induction of apoptosis in human HepG2 cells assessed as early apoptotic cells at 25 uM incubated for 24 hrs by Annexin V/PI staining based flow cytometry analysis (reference value: 3.64%); format: functional
HepG2 [17] = assay: Induction of apoptosis in human HepG2 cells assessed as early apoptotic cells at 50 uM incubated for 24 hrs by Annexin V/PI staining based flow cytometry analysis (reference value: 3.64%); format: functional
HepG2 [18] = assay: Induction of apoptosis in human HepG2 cells assessed as late apoptotic cells at 12.5 uM incubated for 24 hrs by Annexin V/PI staining based flow cytometry analysis (reference value: 1.30%); format: functional
HepG2 [19] = assay: Induction of apoptosis in human HepG2 cells assessed as late apoptotic cells at 25 uM incubated for 24 hrs by Annexin V/PI staining based flow cytometry analysis (reference value: 1.30%); format: functional
HepG2 [20] = assay: Induction of apoptosis in human HepG2 cells assessed as late apoptotic cells at 50 uM incubated for 24 hrs by Annexin V/PI staining based flow cytometry analysis (reference value: 1.30%); format: functional
HepG2 [21] = assay: Induction of apoptosis in human HepG2 cells assessed as necrotic cells at 12.5 uM incubated for 24 hrs by Annexin V/PI staining based flow cytometry analysis (reference value: 0.21%); format: functional
HepG2 [22] = assay: Induction of apoptosis in human HepG2 cells assessed as necrotic cells at 25 uM incubated for 24 hrs by Annexin V/PI staining based flow cytometry analysis (reference value: 0.21%); format: functional
HepG2 [23] = assay: Induction of apoptosis in human HepG2 cells assessed as necrotic cells at 50 uM incubated for 24 hrs by Annexin V/PI staining based flow cytometry analysis (reference value: 0.21%); format: functional
HepG2 [24] = assay: Induction of apoptosis in human HepG2 cells assessed as late apoptotic cells incubated for 24 hrs by Annexin V/PI staining based flow cytometry analysis; format: functional, cell-based; conditions: dose 12.5-50 µM
HepG2 [25] = assay: Induction of apoptosis in human HepG2 cells assessed as early apoptotic cells incubated for 24 hrs by Annexin V/PI staining based flow cytometry analysis; format: functional, cell-based; conditions: dose 12.5-50 µM

IC50 (HepG2 [1]): > 100 µM
IC50 (MCF7): > 100 µM
Structure (SMILES): C[C@@]12CCC[C@](O)(c3ccoc3)[C@@H]1CC1=C(C2)C(=O)C=CC1=O

IC50 (HepG2 [1]): 10.9 µM
IC50 (MCF7): 23.4 µM
inhibition (Homo sapiens [2]): 34.2%
IC50 [3]: 6.23 µM
IC50 [4]: 6.23 µM
Structure (SMILES): C=C1C(=O)O[C@H]2[C@H]1CCC(C)=C1CC[C@@](C)(O)[C@@H]12 [MICHELIOLIDE]

IC50 (HepG2 [1]): 69.5 µM
IC50 (MCF7): 13.6 µM
inhibition (Homo sapiens [2]): 15.7%
Structure (SMILES): C[C@@]12CCC[C@](O)(c3ccc(C(F)(F)F)cc3)[C@@H]1CC1=C(C2)C(=O)C=CC1=O

IC50 (HepG2 [1]): 34 µM
IC50 (MCF7): 24.2 µM
inhibition (Homo sapiens [2]): 19.6%
Structure (SMILES): C[C@@]12CCC[C@](O)(c3ccccc3)[C@@H]1CC1=C(C2)C(=O)C=CC1=O

IC50 (HepG2 [1]): 27.8 µM
IC50 (MCF7): 43.3 µM
inhibition (Homo sapiens [2]): 21.6%
Structure (SMILES): C[C@@]12CCC[C@@H](C(=O)O)[C@@H]1CC1=C(C2)C(=O)C=CC1=O

IC50 (HepG2 [1]): 45.3 µM
IC50 (MCF7): 28.8 µM
inhibition (Homo sapiens [2]): 23.5%
Structure (SMILES): C[C@@]12CCC[C@](O)(c3ccccn3)[C@@H]1CC1=C(C2)C(=O)C=CC1=O

IC50 (HepG2 [1]): 71.7 µM
IC50 (MCF7): 43.7 µM
inhibition (Homo sapiens [2]): 13.7%
Structure (SMILES): C[C@@]12CCC[C@@H](CO)[C@@H]1CC1=C(C2)C(=O)C=CC1=O

IC50 (HepG2 [1]): > 100 µM
IC50 (MCF7): 36.9 µM
inhibition (Homo sapiens [2]): 11.8%
Structure (SMILES): Cc1ccc([C@@]2(O)CCC[C@@]3(C)CC4=C(C[C@H]32)C(=O)C=CC4=O)cc1

IC50 [5]: ~50 µM
Structure (SMILES): COc1ccccc1/C=C/C(=O)/C=C/c1ccccc1OC

IC50 (HepG2 [1]): 62.6 µM
IC50 (MCF7): 30.7 µM
inhibition (Homo sapiens [2]): 18.5%
Structure (SMILES): C[C@@]12CCCC(=O)[C@@H]1CC1=C(C2)C(=O)C=CC1=O

IC50 (HepG2 [1]): 36.6 µM
IC50 (MCF7): 15.6 µM
inhibition (Homo sapiens [2]): 34.9%
Structure (SMILES): C[C@@]12CCC[C@@H](O)[C@@H]1CC1=C(C2)C(=O)C=CC1=O

IC50 (HepG2 [1]): 59.6 µM
IC50 (MCF7): 16.4 µM
inhibition (Homo sapiens [2]): 19.7%
Structure (SMILES): C=CC(=O)O[C@@H]1CCC[C@@]2(C)CC3=C(C[C@@H]12)C(=O)C=CC3=O

IC50 (HepG2 [1]): 19.4 µM
IC50 (MCF7): 28.2 µM
inhibition (Homo sapiens [2]): 71.9%
IC50 [3]: 3.5 µM
inhibition (Homo sapiens [6]): 100%
Structure (SMILES): C[C@@]12CCC[C@](O)(c3ccc(C#N)cc3)[C@@H]1CC1=C(C2)C(=O)C=CC1=O
inhibition (HepG2 [7]): Active
inhibition (HepG2 [8]): Dose-dependent-effect
Activity (HepG2 [9]): Active
Activity (HepG2 [10]): Active
Activity (HepG2 [11]): Active
viability at 12.5 µM (HepG2 [12]): 92.2%
viability at 25 µM (HepG2 [13]): 81.3%
viability at 50 µM (HepG2 [14]): 54%
Activity (HepG2 [15]): 5.54%
Activity (HepG2 [16]): 13.9%
Activity (HepG2 [17]): 22.7%
Activity (HepG2 [18]): 1.82%
Activity (HepG2 [19]): 3.39%
Activity (HepG2 [20]): 12.6%
Activity (HepG2 [21]): 0.3%
Activity (HepG2 [22]): 1.39%
Activity (HepG2 [23]): 10.7%
Activity (HepG2 [24]): Dose-dependent-effect
Activity (HepG2 [25]): Dose-dependent-effect

IC50 (HepG2 [1]): > 100 µM
IC50 (MCF7): > 100 µM
Structure (SMILES): C=CC(=O)O[C@@H]1C2=C(C[C@]3(C)CCCC(=O)[C@H]13)C(=O)C=CC2=O

IC50 (HepG2 [1]): 48.5 µM
IC50 (MCF7): 32.4 µM
inhibition (Homo sapiens [2]): 60.4%
Structure (SMILES): C[C@@]12CCCC(=O)[C@@H]1[C@H](O)C1=C(C2)C(=O)C=CC1=O

IC50 (HepG2 [1]): > 100 µM
IC50 (MCF7): 17.4 µM
inhibition (Homo sapiens [2]): 9.8%
Structure (SMILES): COc1ccc([C@@]2(O)CCC[C@@]3(C)CC4=C(C[C@H]32)C(=O)C=CC4=O)cc1

IC50 (HepG2 [1]): 46.5 µM
IC50 (MCF7): 19.6 µM
inhibition (Homo sapiens [2]): 19.6%
Structure (SMILES): CCc1ccc([C@@]2(O)CCC[C@@]3(C)CC4=C(C[C@H]32)C(=O)C=CC4=O)cc1

IC50 (HepG2 [1]): > 100 µM
IC50 (MCF7): 59.3 µM
inhibition (Homo sapiens [2]): 19.6%
Structure (SMILES): C=C1CCC[C@@]2(C)CC3=C(C[C@@H]12)C(=O)C=CC3=O [CORDIACHROME B]

IC50 (HepG2 [1]): 55 µM
IC50 (MCF7): > 100 µM
IC50 [4]: 0.17 µM
Structure (SMILES): C[C@H]1CO[C@H]2C3=C(C(=O)C=CC3=O)[C@@H]3OC(=O)[C@H]4CC[C@@H]5[C@H]1CC[C@@]52[C@@H]43
